Results published in the Biogen ADME set (Fang et al. 2023).
Values after ≈ are worked out from the molar mass of the structure shown.

Conditions: for aqueous solubility: pH 6.8

| SMILES | MDR1-MDCK efflux ratio | intrinsic clearance, human liver microsomes | intrinsic clearance, rat liver microsomes | aqueous solubility | fraction unbound, human plasma | fraction unbound, rat plasma |
| --- | --- | --- | --- | --- | --- | --- |
| Cc1cc(Nc2ccccn2)cc(C2CCCN(CC(=O)Nc3ncc(C)s3)C2)n1 (stereo not drawn) | 36.3 | 59.6 mL/min/kg | 956 mL/min/kg | 65.5 µg/mL (≈ 155 µM) |  |  |
| COc1nn(C)cc1C(=O)Nc1cccc(-c2cnc3n2CCC3)c1 | 9.53 | 10.5 mL/min/kg | 70.6 mL/min/kg | 36.2 µg/mL (≈ 107 µM) | 0.0736 | 0.0485 |
| Cc1cc(NC(=O)CCc2cnn(C)c2)c2ccccc2n1 | 7.68 | ≤ 4.74 mL/min/kg | 25 mL/min/kg | 43.2 µg/mL (≈ 147 µM) |  |  |
| Cc1ccc(-c2nc(CN3CCOCC3)n(Cc3ccc(F)cc3)n2)o1 | 4.11 | 98.3 mL/min/kg | 1400 mL/min/kg | 28.9 µg/mL (≈ 81.2 µM) |  |  |
| Cc1ccc(CNC(=O)CN2CCC(n3nnc4cc(C(F)(F)F)ccc43)CC2)cc1 |  | 41.4 mL/min/kg | 168 mL/min/kg | 11.5 µg/mL (≈ 26.6 µM) |  |  |
| O=C(NC[C@]1(O)CCN(Cc2cscn2)C[C@H]1O)c1c[nH]cn1 |  | ≤ 4.74 mL/min/kg | 42.6 mL/min/kg |  |  |  |
| CCc1cccc(NC(=O)COC(=O)c2cnc(C)cn2)c1 |  |  |  | 56.1 µg/mL (≈ 187 µM) |  |  |
| COc1cccc(NC(=O)[C@H]2CCCN(S(=O)(=O)c3ccc(C)cc3)C2)c1 | 2.68 | 38.1 mL/min/kg | 2820 mL/min/kg | 10 µg/mL (≈ 25.7 µM) |  |  |
| Cc1cc(C)nc(CNC(=O)CC2CCNCC2)n1 |  | ≤ 4.74 mL/min/kg | ≤ 10.7 mL/min/kg | 55.5 µg/mL (≈ 212 µM) |  |  |
| CC(C)c1nc2c(n1C)CCN(c1ncnc3ccccc13)C2 | 4.31 | 34.9 mL/min/kg | 402 mL/min/kg | 53.5 µg/mL (≈ 174 µM) |  |  |
| N#CC1(NC(=O)Cc2cc3c(ccc4ccccc43)o2)CCOCC1 |  | 87.3 mL/min/kg | 705 mL/min/kg |  |  |  |
| Cc1ccc(N/N=C2\C(=O)N(C)N=C2Nc2ccccc2Cl)cc1 |  |  |  | 0.5 µg/mL (≈ 1.46 µM) |  |  |
| O=C(c1ccc(F)cc1)N1Cc2nc[nH]c2C[C@H]1c1nc(-c2ccc(Cl)cc2)no1 |  | 21.3 mL/min/kg | 133 mL/min/kg | 20.2 µg/mL (≈ 47.7 µM) |  |  |
| CN1CCN(C2=c3ccccc3=Nc3ccc(Cl)cc3N2)CC1 | 0.8 |  |  | 58.2 µg/mL (≈ 178 µM) |  |  |
| CCn1nccc1CNc1ncccn1 | 0.592 | ≤ 4.74 mL/min/kg | ≤ 10.7 mL/min/kg |  |  |  |
| Cc1ccc(OCC(=O)Nc2cc(C)on2)nc1 |  | ≤ 4.74 mL/min/kg | ≤ 10.7 mL/min/kg |  |  |  |
| CCNC1=N[C@@H]2[C@@H](O)[C@@H](O)[C@H](CO)O[C@@H]2S1 |  | ≤ 4.74 mL/min/kg | ≤ 10.7 mL/min/kg |  |  |  |
| Cc1ccsc1C(=O)NCc1ccc2c(c1)OCCCO2 | 0.582 | 53.1 mL/min/kg | 952 mL/min/kg | 56.9 µg/mL (≈ 187 µM) |  |  |
| CC(=O)Nc1cccc(OCC(=O)N2CCCCC2)c1 | 11.9 | ≤ 4.74 mL/min/kg | 126 mL/min/kg | 42.4 µg/mL (≈ 153 µM) |  |  |
| O=C1CCCN1CCCc1nc(Cc2c(Cl)cccc2Cl)n[nH]1 | 78.4 | 46.1 mL/min/kg | 381 mL/min/kg |  |  |  |

| SMILES | MDR1-MDCK efflux ratio | intrinsic clearance, human liver microsomes | intrinsic clearance, rat liver microsomes | aqueous solubility | fraction unbound, human plasma | fraction unbound, rat plasma |
| --- | --- | --- | --- | --- | --- | --- |
| Oc1c(C(c2ccc(F)cc2)N2CCCCC2)ccc2cccnc12 (stereo not drawn) |  | 35.1 mL/min/kg | 382 mL/min/kg |  |  |  |
| O=C(CCCCCCC(=O)Nc1ccccc1)NO |  | ≤ 4.74 mL/min/kg | 27.4 mL/min/kg |  |  |  |
| CNC(=O)Cc1nc(-c2cncc(C)c2)cs1 | 0.978 | 5.86 mL/min/kg | 14.5 mL/min/kg | 37.6 µg/mL (≈ 152 µM) |  |  |
| N#Cc1cnn(-c2nc(-c3ccc(Br)s3)cs2)c1N |  |  |  | 1.9 µg/mL (≈ 5.39 µM) |  |  |
| Cc1nc2cc(NC(=O)CCc3c(C)nc4c(c(C)nn4C)c3C)ccc2o1 | 13.5 | 24.2 mL/min/kg | 1110 mL/min/kg | 9.3 µg/mL (≈ 24.6 µM) |  |  |
| Cc1cc(C(=O)NCC2CC2)n2nccc2n1 | 0.576 | 25.7 mL/min/kg | 74.9 mL/min/kg | 50.4 µg/mL (≈ 219 µM) |  |  |
| CN(Cc1sccc1Br)c1nccnc1C#N |  |  |  | 8.5 µg/mL (≈ 27.5 µM) |  |  |
| CC1CCN(CCNC(=O)c2ccncc2)CC1 | 2.3 | ≤ 4.74 mL/min/kg | 490 mL/min/kg | 34.2 µg/mL (≈ 138 µM) |  |  |
| CC(C)(C)c1ccc(C(=O)Nc2ccc(C(=O)Nc3ccccc3)cc2)cc1 | 0.455 |  |  | 0.4 µg/mL (≈ 1.07 µM) |  |  |
| Oc1cccc(/C=C/c2nc3ccccc3o2)c1 | 0.192 |  |  | 0.7 µg/mL (≈ 2.95 µM) |  |  |
| O=C(Cn1c(-c2ccc(F)cc2)nc2ccccc21)N1CCOCC1 | 12.8 | ≤ 4.74 mL/min/kg | ≤ 10.7 mL/min/kg | 54.6 µg/mL (≈ 161 µM) |  |  |
| CC(=O)N1CCN(c2c(Cl)cccc2NC(=O)COc2ccc(C(C)C)cc2)CC1 | 2.13 | 134 mL/min/kg | 1990 mL/min/kg | 2.7 µg/mL (≈ 6.28 µM) |  |  |
| Cc1ccc(NC(=O)c2cccc3cccnc23)cc1 |  | 206 mL/min/kg | 240 mL/min/kg | 5.7 µg/mL (≈ 21.7 µM) |  |  |
| Cc1ccc(CC(=O)Nc2nc(C)no2)cn1 | 2 | ≤ 4.74 mL/min/kg | ≤ 10.7 mL/min/kg | 42.8 µg/mL (≈ 184 µM) |  |  |
| Cc1nnc(N2CCC(CNc3ccc(C#N)cn3)C2)c(C#N)c1C (stereo not drawn) |  |  |  | 8.15 µg/mL (≈ 24.4 µM) |  |  |
| COc1ccccc1OC1CCN(Cc2ccccc2C#N)CC1 | 0.557 | 220 mL/min/kg | 1510 mL/min/kg | 41.1 µg/mL (≈ 127 µM) |  |  |
| COc1ccc(N2N=C(C)/C(=C(\C)Nc3ccc(S(N)(=O)=O)cc3)C2=O)cc1 | 41.1 | 8.92 mL/min/kg | 39.3 mL/min/kg | 20.9 µg/mL (≈ 52.1 µM) |  |  |
| Cc1nn(C)c2nc(-c3ccncc3)cc(C(=O)O)c12 |  | ≤ 4.74 mL/min/kg | ≤ 10.7 mL/min/kg |  |  |  |
| O=C(Nc1cccc(N2CCNC2=O)c1)C1NCC12CCCC2 (stereo not drawn) | 22 | ≤ 4.74 mL/min/kg |  |  | 0.523 |  |
| Cn1cc(-c2nnc(NCc3ccc4ccccc4c3)o2)cn1 | 0.701 | 7.14 mL/min/kg | 46.3 mL/min/kg | 11.2 µg/mL (≈ 36.8 µM) |  |  |

| SMILES | MDR1-MDCK efflux ratio | intrinsic clearance, human liver microsomes | intrinsic clearance, rat liver microsomes | aqueous solubility | fraction unbound, human plasma | fraction unbound, rat plasma |
| --- | --- | --- | --- | --- | --- | --- |
| CC(C)N(C(=O)Cn1cccc2cc(-c3ccco3)nc1-2)C(C)C | 1.81 | 373 mL/min/kg | 1790 mL/min/kg |  |  |  |
| Oc1ccccc1NCc1ccccn1 |  | 24.9 mL/min/kg | 600 mL/min/kg | 44.1 µg/mL (≈ 220 µM) |  |  |
| COCCN(C)C(=O)c1ccc(-c2cccc(-c3noc(C)n3)c2)cc1 | 0.878 | 11.4 mL/min/kg | 75.2 mL/min/kg |  |  |  |
| CC(C)c1csc(NC(=O)C2CCN(c3ncccn3)CC2)n1 | 0.562 | 44.6 mL/min/kg | 268 mL/min/kg | 44.8 µg/mL (≈ 135 µM) |  |  |
| Nc1nc(N)c2nc(-c3cccc(O)c3)c(-c3cccc(O)c3)nc2n1 | 2.78 | ≤ 4.74 mL/min/kg | 115 mL/min/kg | 2.1 µg/mL (≈ 6.06 µM) |  |  |
| CN(Cc1ccc(OC(F)(F)F)cc1)Cc1cn(C)nn1 | 0.666 | 15 mL/min/kg | 290 mL/min/kg |  |  |  |
| Cc1cccc2ncn(CCc3ncc[nH]3)c(=O)c12 | 6.44 | ≤ 4.74 mL/min/kg | 2240 mL/min/kg |  |  |  |
| Cc1cc(C)c2c(N)c(C(=O)NCc3ccc(Cl)cc3)sc2n1 |  | 162 mL/min/kg | 1540 mL/min/kg |  | 0.00426 | 0.00652 |
| CC1(C(=O)O)CCN(Cc2ccccc2)CC1 |  | ≤ 4.74 mL/min/kg | ≤ 10.7 mL/min/kg | 44.9 µg/mL (≈ 193 µM) |  |  |
| O=c1c2c(Cl)ccc(Cl)c2ncn1Cc1cc(O)ncn1 |  | ≤ 4.74 mL/min/kg | ≤ 10.7 mL/min/kg |  |  |  |
| O=C(c1ccc(Oc2ccccc2)cc1Cl)c1c[nH]c2ncnc(N[C@@H]3CC[C@@H](CO)OC3)c12 | 6.8 | ≤ 4.74 mL/min/kg | ≤ 10.7 mL/min/kg |  | 0.00341 | 0.00506 |
| CCOc1cc(N2CCc3nc[nH]c3C2)ncn1 |  | ≤ 4.74 mL/min/kg | 77.8 mL/min/kg |  |  |  |
| O=C1CC[C@H](O)[C@@H](c2cccc(Cl)c2)N1Cc1ccccc1 | 3.79 | 10.9 mL/min/kg | 450 mL/min/kg | 118 µg/mL (≈ 375 µM) |  |  |
| O=C(Nc1cccc2ncccc12)[C@H]1CCCN(S(=O)(=O)c2cccs2)C1 |  | 35.8 mL/min/kg | 614 mL/min/kg |  |  |  |
| N#Cc1c(O)c(Cl)c(Cl)c(C#N)c1Cl |  |  |  | 31.3 µg/mL (≈ 126 µM) |  |  |
| O=C(NCc1cnn(-c2ccccc2)c1)C1CCC1 | 0.723 | ≤ 4.74 mL/min/kg | 117 mL/min/kg | 31.7 µg/mL (≈ 124 µM) |  |  |
| CCCC(=O)Nc1ccc(C(=O)N(C)C)cc1 | 1.41 | 22.2 mL/min/kg | 50.7 mL/min/kg |  |  |  |
| Cc1nnsc1CN(C)c1ccc2cc[nH]c2n1 | 0.593 | 39.3 mL/min/kg | 342 mL/min/kg | 24.5 µg/mL (≈ 94.5 µM) |  |  |
| Cc1nccc(N(C)Cc2nc(-c3cccnc3)no2)n1 | 0.87 | 8.62 mL/min/kg | 200 mL/min/kg |  |  |  |
| CC(=O)N1CC[C@H]2O[C@H]3c4ccc(O[C@@H]5O[C@H](CO)[C@@H](O[C@@H]6O[C@H](CO)[C@H](O)[C@H](O)[C@H]6O)[C@H](O)[C@H]5O)cc4OC(C)(C)[C@@H]3C[C@H]2C1 | 0.675 | ≤ 4.74 mL/min/kg | ≤ 10.7 mL/min/kg |  |  |  |
